Reference: publication PMC6407913, “DREADD Agonist 21 Is an Effective Agonist for Muscarinic-Based DREADDs in Vitro and in Vivo” (ACS Pharmacology & Translational Science, 2018)
Changes are numbered by the printed parent chain. pEC50, pKi: −log10 of the molar value. Several values for one entry are separate records, joined by “and”; a condition that tells them apart may be missing. Equal entries are not always repeated.

Key:
[1] = tested on: hM3Dq-expressing lateral hypothalamic vGAT neurons; experiment: recordings from lateral hypothalamic vGAT neurons; format: cell-based
hM4 = molecular target: T1, hM4 (Homo sapiens, UniProt P08173); experiment: inhibition of isoproterenol-stimulated cAMP production; format: cell-based; settings: hM4, inhibition of isoproterenol elevated cAMP, mean (±SEM)
T1 construct: HA (hemagglutinin); expressed in transfected cells
T1 sequence (P08173 1-479): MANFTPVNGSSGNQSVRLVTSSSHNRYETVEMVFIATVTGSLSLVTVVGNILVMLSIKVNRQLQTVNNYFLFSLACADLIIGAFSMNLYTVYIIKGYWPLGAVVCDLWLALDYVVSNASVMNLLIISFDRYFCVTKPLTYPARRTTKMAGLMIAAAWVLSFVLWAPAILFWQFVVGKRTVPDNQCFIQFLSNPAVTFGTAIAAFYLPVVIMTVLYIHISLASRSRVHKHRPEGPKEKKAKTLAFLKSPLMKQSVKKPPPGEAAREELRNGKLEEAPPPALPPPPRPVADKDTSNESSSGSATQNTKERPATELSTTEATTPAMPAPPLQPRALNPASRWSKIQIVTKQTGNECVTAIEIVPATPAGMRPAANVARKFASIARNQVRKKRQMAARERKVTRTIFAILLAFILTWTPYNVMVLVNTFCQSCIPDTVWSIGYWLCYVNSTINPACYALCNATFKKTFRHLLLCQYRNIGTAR

hM3Dq in LH-vGAT neurons = experiment: food intake, hM3Dq in LH-vGAT neurons; format: in vivo, mice; settings: 0.3, 1.0, 3.0 mg/kg
[2] = molecular target: T2, 318 nonolfactory human GPCRs (Homo sapiens, UniProt Q9Y5Y4); format: cell-based; settings: GPR44; C21 5 µM
T2 construct: expressed in transfected cells; host or cells: HTLA cells, transient

hM1 = molecular target: T3, hM1 (Homo sapiens, UniProt P11229); experiment: IP-One accumulation assay; format: cell-based; settings: wildtype hM1
T3 sequence (P11229 1-460): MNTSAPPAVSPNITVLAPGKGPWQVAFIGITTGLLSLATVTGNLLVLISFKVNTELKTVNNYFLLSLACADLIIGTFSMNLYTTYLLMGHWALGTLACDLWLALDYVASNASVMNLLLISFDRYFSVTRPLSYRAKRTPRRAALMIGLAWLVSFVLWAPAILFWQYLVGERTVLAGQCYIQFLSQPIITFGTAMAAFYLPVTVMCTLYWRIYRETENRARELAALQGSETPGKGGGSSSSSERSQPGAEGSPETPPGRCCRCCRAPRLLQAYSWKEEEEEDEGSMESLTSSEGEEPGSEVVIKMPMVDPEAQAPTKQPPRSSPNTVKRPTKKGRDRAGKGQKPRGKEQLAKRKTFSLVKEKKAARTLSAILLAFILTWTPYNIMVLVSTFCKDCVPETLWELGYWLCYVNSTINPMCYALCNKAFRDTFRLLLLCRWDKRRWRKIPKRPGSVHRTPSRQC

hM4Di = molecular target: T4, hM4Di (Homo sapiens, UniProt P08173, A203G/Y113C); experiment: whole-cell [3H]NMS competition binding
T4 sequence (P08173 1-479 Y113C/A203G): T1 sequence (P08173 1-479) with Y113C, A203G

hM1Dq = molecular target: T5, hM1Dq (Homo sapiens, UniProt P11229, A196G/Y106C); experiment: ERK1/2 phosphorylation (pERK1/2) assay
T5 sequence (P11229 1-460 Y106C/A196G): T3 sequence (P11229 1-460) with Y106C, A196G

dopamine D1 receptors = dopamine D1 receptors (Homo sapiens, UniProt P21728); experiment: cAMP signaling concentration-response, agonist mode; format: cell-based
Experimental: HEK293 T cells were used for transient transfections and Gi mediated cAMP production assays. Assays were performed according to published procedures (PMID25895059, PRESTO-Tango paper). More detailed assay protocols are available at NIMH PDSP Web site (http://pdspdb.unc.edu/pdspWeb/?site=assays).
HEK293T cells in 10 cm plates were transfected with 4 μg of Glosensor and 4 μg of DNA encoding the human dopamine D1 receptor. The next day, cells were harvested and plated in polylysine-coated 384-well plates (Greiner) at a density of 20 000 cells/well in DMEM containing 1% dFBS. The next day, media was aspirated from each well and replaced with 20 μL of assay buffer containing 4 mM luciferin. Then, 10 μL of drugs were added 30 min later, and plates were read after 15 min.

[3] = tested on: hM4Di expressed in PVH SIM1 neurons; experiment: food intake, hM4Di in PVH SIM1 neurons (Sim1-Cre mice)
[4] = brain and plasma exposure after i.p. administration; format: in vivo, mice
[5] = i.p. 0.1, 1 and 10 mg/kg, 30 min after administration

T2 sequence (Q9Y5Y4 whole entry): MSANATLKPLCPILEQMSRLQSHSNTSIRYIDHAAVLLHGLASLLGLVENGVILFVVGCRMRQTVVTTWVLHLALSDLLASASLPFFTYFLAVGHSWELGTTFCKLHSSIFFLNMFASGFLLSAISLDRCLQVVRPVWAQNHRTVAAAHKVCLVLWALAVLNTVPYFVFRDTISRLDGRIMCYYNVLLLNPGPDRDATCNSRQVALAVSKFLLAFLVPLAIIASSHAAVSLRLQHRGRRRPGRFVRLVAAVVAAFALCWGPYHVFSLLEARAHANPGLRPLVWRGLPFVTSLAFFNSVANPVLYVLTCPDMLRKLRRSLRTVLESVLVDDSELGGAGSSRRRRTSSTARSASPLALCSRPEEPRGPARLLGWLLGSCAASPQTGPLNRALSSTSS
Chain of dopamine D1 receptors (P21728 whole entry): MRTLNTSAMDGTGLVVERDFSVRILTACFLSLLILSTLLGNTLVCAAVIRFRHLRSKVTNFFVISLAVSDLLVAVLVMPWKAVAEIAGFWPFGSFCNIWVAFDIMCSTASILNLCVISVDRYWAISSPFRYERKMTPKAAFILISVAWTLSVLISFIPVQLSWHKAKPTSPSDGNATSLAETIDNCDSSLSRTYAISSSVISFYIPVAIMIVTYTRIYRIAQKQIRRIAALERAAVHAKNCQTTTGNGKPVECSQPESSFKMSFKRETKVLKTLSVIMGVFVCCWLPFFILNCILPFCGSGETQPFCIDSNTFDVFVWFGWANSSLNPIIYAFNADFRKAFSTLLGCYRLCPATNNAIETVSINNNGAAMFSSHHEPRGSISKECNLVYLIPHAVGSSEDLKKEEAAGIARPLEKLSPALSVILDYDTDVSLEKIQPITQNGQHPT

c1ccc2c(c1)N=C(N1CCNCC1)c1ccccc1N2 [C21, 11-(1-piperazinyl)-5H-dibenzo[b,e][1,4]diazepine]
depolarization of neurons [1]: depolarization
pEC50 (hM4): 5.73
food intake (hM3Dq in LH-vGAT neurons): drives feeding in a dose-dependent fashion
FOLD OVER BASAL [2]: 1.3 fold and 2.1 fold and 1.5 fold and 1.4 fold
agonist activity in IP1 assay (hM1): no agonist activity
pKi (hM4Di): 6.75
higher binding affinity at hM4Di than at wildtype hM4 (hM4Di; hM4Di vs hM4): > 10 fold
pEC50 (hM1Dq): 6.54
agonist activity, follow-up concentration-response (cAMP) (dopamine D1 receptors): minimal activity
food intake, light cycle, sated mice ([3]; SIM1-Cre mice with AAV-DIO-hM4Di-mCherry, i.p.): substantially enhanced food consumption at comparable levels to CNO
food intake in control mice ([3]; wildtype (non-Cre-expressing) littermates injected with AAV-DIO-hM4Di-mCherry): neither C21 nor CNO ligand influenced food intake
effective free concentration at the peak, brain ([4]; 5 mg/kg i.p.): 28 nM
effective free concentration at the peak, plasma ([4]; 5 mg/kg i.p.): ~54 nM
brain level reached ([4]; 5 mg/kg i.p., time course): 579 ng/mL and 2 μM
peak plasma level ([4]; 5 mg/kg i.p., time course): 1150 ng/mL and 4.12 μM
calculated free brain concentration ([4]; dose 0.3 mg/kg, mice): ~1.7 nM
calculated free concentration ([4]; dose 3 mg/kg, mice): ~17 nM
brain and plasma levels [4, 5]: measurable brain and plasma levels
metabolism to clozapine [4, 5]: no evidence of metabolism to clozapine
